In ChEMBL document CHEMBL4732047, “New imidazopyridines with phosphodiesterase 4 and 7 inhibitory activity and their efficacy in animal models of inflammatory and autoimmune diseases” (Eur J Med Chem, 2021):
Calls of active or inactive are those of the source. The rule behind the calls is not given here.

Experiments:
[1] = target: cGMP-dependent 3',5'-cyclic phosphodiesterase (Homo sapiens, UniProt O00408); experiment: Inhibition of human recombinant PDE2A using cGMP as substrate incubated for 20 mins measured by Kinase Glo reagent based microplate reader assay
Chain of cGMP-dependent 3',5'-cyclic phosphodiesterase (O00408 whole entry): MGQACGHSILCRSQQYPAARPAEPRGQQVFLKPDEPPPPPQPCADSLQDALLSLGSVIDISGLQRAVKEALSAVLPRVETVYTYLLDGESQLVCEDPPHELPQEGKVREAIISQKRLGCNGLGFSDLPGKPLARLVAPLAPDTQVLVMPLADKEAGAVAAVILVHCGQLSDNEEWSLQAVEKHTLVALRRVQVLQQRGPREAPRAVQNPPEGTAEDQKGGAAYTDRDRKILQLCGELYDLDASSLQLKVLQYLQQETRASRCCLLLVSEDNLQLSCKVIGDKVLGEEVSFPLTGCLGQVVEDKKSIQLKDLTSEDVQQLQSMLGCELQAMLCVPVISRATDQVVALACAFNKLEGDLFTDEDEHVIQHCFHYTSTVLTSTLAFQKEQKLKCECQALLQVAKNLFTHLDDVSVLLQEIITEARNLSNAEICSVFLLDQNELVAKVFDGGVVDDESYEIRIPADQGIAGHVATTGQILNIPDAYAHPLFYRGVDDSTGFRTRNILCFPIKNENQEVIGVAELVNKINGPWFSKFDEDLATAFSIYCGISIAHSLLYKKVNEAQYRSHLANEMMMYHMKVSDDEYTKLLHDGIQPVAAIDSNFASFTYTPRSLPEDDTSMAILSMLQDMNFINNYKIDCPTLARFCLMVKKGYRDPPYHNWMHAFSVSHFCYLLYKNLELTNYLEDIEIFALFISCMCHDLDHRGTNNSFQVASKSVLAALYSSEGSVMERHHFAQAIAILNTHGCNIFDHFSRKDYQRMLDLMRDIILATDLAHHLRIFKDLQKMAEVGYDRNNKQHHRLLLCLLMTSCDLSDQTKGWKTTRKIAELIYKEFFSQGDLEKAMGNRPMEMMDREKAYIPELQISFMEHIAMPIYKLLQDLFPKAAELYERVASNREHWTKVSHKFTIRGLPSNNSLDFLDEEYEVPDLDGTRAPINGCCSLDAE

[2] = target: 3',5'-cyclic-AMP phosphodiesterase 4B (Homo sapiens, UniProt Q07343); experiment: Inhibition of human recombinant PDE4B using cAMP as substrate incubated for 20 mins measured by Kinase Glo reagent based microplate reader assay
Chain of 3',5'-cyclic-AMP phosphodiesterase 4B (Q07343 whole entry): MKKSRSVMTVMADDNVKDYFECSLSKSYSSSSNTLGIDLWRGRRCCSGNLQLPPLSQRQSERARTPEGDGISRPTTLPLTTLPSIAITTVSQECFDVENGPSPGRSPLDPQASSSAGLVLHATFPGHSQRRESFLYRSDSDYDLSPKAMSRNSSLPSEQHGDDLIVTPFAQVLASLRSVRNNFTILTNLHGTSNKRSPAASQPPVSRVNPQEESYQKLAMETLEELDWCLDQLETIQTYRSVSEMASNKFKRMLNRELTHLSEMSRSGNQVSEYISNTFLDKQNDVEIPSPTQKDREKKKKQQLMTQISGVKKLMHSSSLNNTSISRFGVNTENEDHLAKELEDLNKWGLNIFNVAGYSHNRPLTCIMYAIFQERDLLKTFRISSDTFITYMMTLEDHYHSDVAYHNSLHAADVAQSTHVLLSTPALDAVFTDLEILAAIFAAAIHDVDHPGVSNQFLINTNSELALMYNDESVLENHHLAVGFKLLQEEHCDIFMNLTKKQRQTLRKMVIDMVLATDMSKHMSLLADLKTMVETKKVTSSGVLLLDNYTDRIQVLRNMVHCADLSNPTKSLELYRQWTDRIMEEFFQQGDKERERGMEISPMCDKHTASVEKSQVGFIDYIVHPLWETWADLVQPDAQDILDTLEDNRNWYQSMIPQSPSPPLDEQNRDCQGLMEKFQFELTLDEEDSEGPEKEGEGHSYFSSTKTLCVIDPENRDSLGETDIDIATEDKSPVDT

[3] = target: cGMP-specific 3',5'-cyclic phosphodiesterase (Homo sapiens, UniProt O76074); experiment: Inhibition of human recombinant PDE5A using cGMP as substrate incubated for 20 mins measured by Kinase Glo reagent based microplate reader assay
[4] = target: High affinity 3',5'-cyclic-AMP phosphodiesterase 7A (Homo sapiens, UniProt Q13946); experiment: Inhibition of human recombinant PDE7A using cAMP as substrate incubated for 20 mins measured by Kinase Glo reagent based microplate reader assay
Chain of High affinity 3',5'-cyclic-AMP phosphodiesterase 7A (Q13946 whole entry): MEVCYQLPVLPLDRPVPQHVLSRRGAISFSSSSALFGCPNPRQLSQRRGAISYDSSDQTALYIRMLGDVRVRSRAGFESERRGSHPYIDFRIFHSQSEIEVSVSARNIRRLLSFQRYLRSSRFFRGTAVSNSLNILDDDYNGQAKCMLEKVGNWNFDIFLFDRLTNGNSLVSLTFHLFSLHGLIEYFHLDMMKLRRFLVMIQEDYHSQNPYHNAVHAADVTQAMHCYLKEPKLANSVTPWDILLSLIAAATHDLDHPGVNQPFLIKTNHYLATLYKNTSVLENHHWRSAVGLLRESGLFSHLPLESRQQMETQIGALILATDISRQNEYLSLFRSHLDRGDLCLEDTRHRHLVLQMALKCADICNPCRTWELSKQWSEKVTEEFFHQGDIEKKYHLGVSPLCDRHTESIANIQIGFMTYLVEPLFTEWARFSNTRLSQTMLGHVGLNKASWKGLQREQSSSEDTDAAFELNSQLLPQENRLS

[5] = target: cGMP-inhibited 3',5'-cyclic phosphodiesterase 3A (Homo sapiens, UniProt Q14432); experiment: Inhibition of human recombinant PDE3A using cAMP as substrate incubated for 20 mins measured by Kinase Glo reagent based microplate reader assay
Chain of cGMP-inhibited 3',5'-cyclic phosphodiesterase 3A (Q14432 whole entry): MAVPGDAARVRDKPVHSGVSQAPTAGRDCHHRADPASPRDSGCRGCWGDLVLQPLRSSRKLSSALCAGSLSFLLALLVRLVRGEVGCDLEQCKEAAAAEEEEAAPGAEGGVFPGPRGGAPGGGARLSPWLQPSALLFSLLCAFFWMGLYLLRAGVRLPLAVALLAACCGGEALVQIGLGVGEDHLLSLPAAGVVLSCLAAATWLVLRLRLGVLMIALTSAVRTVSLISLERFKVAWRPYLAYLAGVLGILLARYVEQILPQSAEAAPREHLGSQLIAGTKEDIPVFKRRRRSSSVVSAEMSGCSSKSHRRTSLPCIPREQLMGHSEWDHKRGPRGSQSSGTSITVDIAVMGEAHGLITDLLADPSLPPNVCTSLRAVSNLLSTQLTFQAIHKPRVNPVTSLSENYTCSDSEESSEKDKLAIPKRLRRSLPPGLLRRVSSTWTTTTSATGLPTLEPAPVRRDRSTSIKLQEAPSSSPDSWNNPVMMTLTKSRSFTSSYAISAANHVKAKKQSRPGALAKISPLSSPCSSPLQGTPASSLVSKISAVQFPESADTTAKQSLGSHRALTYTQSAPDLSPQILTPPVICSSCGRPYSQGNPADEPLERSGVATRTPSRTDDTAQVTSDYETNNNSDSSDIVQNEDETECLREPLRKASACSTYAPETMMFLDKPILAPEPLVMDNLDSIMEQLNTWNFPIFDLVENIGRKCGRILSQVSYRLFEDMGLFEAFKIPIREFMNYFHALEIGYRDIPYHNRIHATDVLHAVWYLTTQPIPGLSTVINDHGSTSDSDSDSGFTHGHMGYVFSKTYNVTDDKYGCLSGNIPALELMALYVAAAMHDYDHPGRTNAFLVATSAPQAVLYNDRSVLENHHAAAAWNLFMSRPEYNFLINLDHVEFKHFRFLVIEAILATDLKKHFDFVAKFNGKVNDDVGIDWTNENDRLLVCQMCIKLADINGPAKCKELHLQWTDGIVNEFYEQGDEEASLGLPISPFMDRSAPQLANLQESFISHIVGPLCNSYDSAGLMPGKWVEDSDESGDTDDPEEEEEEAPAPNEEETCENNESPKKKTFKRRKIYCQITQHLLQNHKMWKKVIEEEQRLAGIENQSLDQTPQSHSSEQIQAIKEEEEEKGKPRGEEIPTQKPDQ

[6] = system: Mus musculus; experiment: Hepatoprotective activity in ConA-induced BALB/c hepatitis mouse model assessed as decrease in serum IL-6 level at 50 mg/kg, ip administration and measured after 8 hrs relative to control; type: functional, organism-based
[7] = target: cAMP and cAMP-inhibited cGMP 3',5'-cyclic phosphodiesterase 10A (Homo sapiens, UniProt Q9Y233); experiment: Inhibition of human recombinant PDE10A using cAMP as substrate incubated for 20 mins measured by Kinase Glo reagent based microplate reader assay
Chain of cAMP and cAMP-inhibited cGMP 3',5'-cyclic phosphodiesterase 10A (Q9Y233 whole entry): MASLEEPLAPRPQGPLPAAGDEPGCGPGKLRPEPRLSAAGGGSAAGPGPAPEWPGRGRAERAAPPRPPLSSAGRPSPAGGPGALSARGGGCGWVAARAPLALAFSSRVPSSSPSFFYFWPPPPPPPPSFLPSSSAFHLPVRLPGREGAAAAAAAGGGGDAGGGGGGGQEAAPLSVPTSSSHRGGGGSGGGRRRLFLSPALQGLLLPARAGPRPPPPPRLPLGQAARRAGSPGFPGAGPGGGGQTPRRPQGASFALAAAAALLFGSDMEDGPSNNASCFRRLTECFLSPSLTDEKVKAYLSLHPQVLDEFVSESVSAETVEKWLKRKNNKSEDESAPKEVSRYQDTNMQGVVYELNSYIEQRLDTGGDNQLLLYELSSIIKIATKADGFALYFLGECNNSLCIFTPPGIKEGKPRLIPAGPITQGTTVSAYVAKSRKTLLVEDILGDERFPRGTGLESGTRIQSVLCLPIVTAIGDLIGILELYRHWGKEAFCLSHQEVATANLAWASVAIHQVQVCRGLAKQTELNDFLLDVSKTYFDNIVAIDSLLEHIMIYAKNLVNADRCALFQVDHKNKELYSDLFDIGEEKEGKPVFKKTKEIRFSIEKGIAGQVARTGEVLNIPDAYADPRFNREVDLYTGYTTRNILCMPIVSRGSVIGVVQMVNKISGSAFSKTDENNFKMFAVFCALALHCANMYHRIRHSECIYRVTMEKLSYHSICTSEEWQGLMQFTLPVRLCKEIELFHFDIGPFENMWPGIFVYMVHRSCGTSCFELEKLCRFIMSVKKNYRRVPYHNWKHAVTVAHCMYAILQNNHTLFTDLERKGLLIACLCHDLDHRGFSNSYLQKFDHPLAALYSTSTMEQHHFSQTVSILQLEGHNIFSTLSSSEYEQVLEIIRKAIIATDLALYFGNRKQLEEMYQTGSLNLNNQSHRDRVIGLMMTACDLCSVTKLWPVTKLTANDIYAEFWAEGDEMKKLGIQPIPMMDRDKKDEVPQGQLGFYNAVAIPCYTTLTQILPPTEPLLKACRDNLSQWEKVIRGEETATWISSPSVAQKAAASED

[8] = target: Dual specificity calcium/calmodulin-dependent 3',5'-cyclic nucleotide phosphodiesterase 1B (Homo sapiens, UniProt Q01064); experiment: Inhibition of human recombinant PDE1B using cAMP as substrate incubated for 20 mins measured by Kinase Glo reagent based microplate reader assay
Chain of Dual specificity calcium/calmodulin-dependent 3',5'-cyclic nucleotide phosphodiesterase 1B (Q01064 whole entry): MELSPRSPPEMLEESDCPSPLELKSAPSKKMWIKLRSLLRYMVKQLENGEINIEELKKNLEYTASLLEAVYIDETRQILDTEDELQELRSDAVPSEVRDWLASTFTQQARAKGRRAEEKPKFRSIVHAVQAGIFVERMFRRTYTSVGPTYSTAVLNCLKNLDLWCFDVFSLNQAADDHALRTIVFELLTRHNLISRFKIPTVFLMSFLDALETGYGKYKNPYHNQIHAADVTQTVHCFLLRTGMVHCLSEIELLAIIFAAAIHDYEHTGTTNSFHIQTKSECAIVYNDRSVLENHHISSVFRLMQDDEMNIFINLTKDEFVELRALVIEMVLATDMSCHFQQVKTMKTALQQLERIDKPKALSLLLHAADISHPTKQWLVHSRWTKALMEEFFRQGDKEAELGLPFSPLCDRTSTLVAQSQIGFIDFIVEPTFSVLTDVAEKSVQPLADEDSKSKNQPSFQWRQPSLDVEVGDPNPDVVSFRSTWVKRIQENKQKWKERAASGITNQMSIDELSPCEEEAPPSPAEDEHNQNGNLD

[9] = target: 3',5'-cyclic-AMP phosphodiesterase 4D (Homo sapiens, UniProt Q08499); experiment: Inhibition of human recombinant PDE4D using cAMP as substrate incubated for 20 mins measured by Kinase Glo reagent based microplate reader assay
[10] = system: Mus musculus; experiment: Immunosuppressive activity in MOG (35 to 55 residues) toxin-induced experimental autoimmune encephalomyelitis female C57BL/6 mouse model assessed as reduction in clinical scores at 50 mg/kg, ip administered […] once daily starting from day 1 post immunization and measured 15 days; type: functional, organism-based; conditions: time 15.0 day
[11] = system: Mus musculus; experiment: Hepatoprotective activity in ConA-induced BALB/c hepatitis mouse model assessed as decrease in serum IFNgamma level at 50 mg/kg, ip administration and measured after 8 hrs relative to control; type: functional, organism-based
[12] = Elimination half life in female Lewis rat at 10 mg/kg, iv; type: ADME, organism-based; conditions: in vivo, read-out: beta t1/2
[13] = system: Mus musculus; experiment: Immunosuppressive activity in MOG (35 to 55 residues) toxin-induced experimental autoimmune encephalomyelitis C57BL/6 mouse model assessed decrease in macrophages infiltration into spinal cored at 50 mg/kg, ip relative to untreated control; type: functional, organism-based
[14] = Drug uptake in C57BL/6 mouse brain at 50 mg/kg, ip measured up to 60 mins; type: ADME, organism-based; conditions: read-out: Drug uptake
[15] = Apparent volume of distribution during terminal phase in male Wistar rat at 10 mg/kg, ip; type: ADME, organism-based; conditions: in vivo, read-out: Vz/F
[16] = Selectivity index, ratio of IC50 for inhibition of human recombinant PDE3A to IC50 for inhibition of human recombinant PDE4B
[17] = system: Mus musculus; experiment: Hepatoprotective activity in ConA-induced BALB/c hepatitis mouse model assessed as decrease in serum IL-6 level at 10 mg/kg, ip administration and measured after 8 hrs relative to control; type: functional, organism-based
[18] = Tmax in male Wistar rat at 10 mg/kg, ip; type: ADME, organism-based; conditions: in vivo
[19] = system: Mus musculus; experiment: Hepatoprotective activity in ConA-induced BALB/c hepatitis mouse model assessed as decrease in serum alanine aminotransferase level at 50 mg/kg, ip administration and measured after 8 hrs relative to control; type: functional, organism-based
[20] = Brain to serum concentration ratio in C57BL/6 mouse at 50 mg/kg, ip measured after 15 mins; type: ADME, organism-based
[21] = system: Mus musculus; experiment: Hepatoprotective activity in ConA-induced BALB/c hepatitis mouse model assessed as decrease in serum aspartate aminotransferase level at 10 mg/kg, ip administration and measured after 8 hrs relative to control; type: functional, organism-based
[22] = system: Mus musculus; experiment: Immunosuppressive activity in MOG (35 to 55 residues) toxin-induced experimental autoimmune encephalomyelitis C57BL/6 mouse model assessed as reduction in white matter vacuolation in cerebellum at 50 mg/kg, ip relative to untreated control; type: functional, organism-based
[23] = system: Mus musculus; experiment: Immunosuppressive activity in MOG (35 to 55 residues) toxin-induced experimental autoimmune encephalomyelitis C57BL/6 mouse model assessed reduction in disease onset at 50 mg/kg, ip; type: functional, organism-based
[24] = Apparent volume of distribution during terminal phase in female Lewis rat at 10 mg/kg, iv; type: ADME, organism-based; conditions: in vivo
[25] = system: Rattus norvegicus; experiment: Antiinflammatory activity in LPS-induced Wistar rat endotoxemia model assessed as decrease in plasma TNFalpha level at 20 mg/kg, ip measured after 1 hr; type: functional; design: scale not given: the % may be the effect or the level left
[26] = system: Rattus norvegicus; experiment: Antiinflammatory activity in collagen-induced arthritis Lewis rat model assessed as decrease in paw swelling at 20 mg/kg, ip once daily administered on day 20 after collagen treatment and treated until day 40 by macroscopic observation analysis; type: functional, organism-based
[27] = Brain to serum concentration ratio in C57BL/6 mouse at 50 mg/kg, ip measured after 60 mins; type: ADME, organism-based
[28] = AUC in male Wistar rat at 10 mg/kg, ip; type: ADME, organism-based; design: dose 10 mg/kg; conditions: in vivo
[29] = Elimination half life in male Wistar rat at 10 mg/kg, ip; type: ADME, organism-based; conditions: in vivo, read-out: beta t1/2
[30] = system: Mus musculus; experiment: Hepatoprotective activity in ConA-induced BALB/c hepatitis mouse model assessed as decrease in serum IFNgamma level at 10 mg/kg, ip administration and measured after 8 hrs relative to control; type: functional, organism-based
[31] = system: Mus musculus; experiment: Immunosuppressive activity in MOG (35 to 55 residues) toxin-induced experimental autoimmune encephalomyelitis C57BL/6 mouse model assessed decrease in polymorphonuclear leukocytes infiltration into spinal cored at 50 mg/kg, ip relative to untreated control; type: functional, organism-based
[32] = Tmax in female Lewis rat at 10 mg/kg, iv; type: ADME, organism-based; conditions: in vivo
[33] = AUC in female Lewis rat at 10 mg/kg, iv; type: ADME, organism-based; design: dose 10 mg/kg; conditions: in vivo
[34] = system: Mus musculus; experiment: Hepatoprotective activity in ConA-induced BALB/c hepatitis mouse model assessed as decrease in serum alanine aminotransferase level at 10 mg/kg, ip administration and measured after 8 hrs relative to control; type: functional, organism-based
[35] = Selectivity index, ratio of IC50 for inhibition of human recombinant PDE4D to IC50 for inhibition of human recombinant PDE4B
[36] = Clearance in female Lewis rat at 10 mg/kg, iv; type: ADME, organism-based; conditions: in vivo
[37] = Elimination half life in Wistar rat; type: ADME; conditions: in vivo, read-out: beta t1/2
[38] = Brain to serum concentration ratio in C57BL/6 mouse at 50 mg/kg, ip measured after 5 mins; type: ADME, organism-based
[39] = system: Rattus norvegicus; experiment: Antiinflammatory activity in LPS-induced Wistar rat endotoxemia model assessed as decrease in plasma TNFalpha level at 20 mg/kg, ip measured after 2 hr; type: functional; design: scale not given: the % may be the effect or the level left
[40] = Cmax in male Wistar rat at 10 mg/kg, ip; type: ADME, organism-based; design: route intraperitoneal, dose 10 mg/kg; conditions: in vivo
[41] = Cmax in female Lewis rat at 10 mg/kg, iv; type: ADME, organism-based; design: route intravenous, dose 10 mg/kg; conditions: in vivo
[42] = system: Rattus norvegicus; experiment: Antiinflammatory activity in LPS-induced Wistar rat endotoxemia model assessed as decrease in plasma TNFalpha level at 20 mg/kg, ip measured after 1.5 hr; type: functional; design: scale not given: the % may be the effect or the level left
[43] = system: Mus musculus; experiment: Hepatoprotective activity in ConA-induced BALB/c hepatitis mouse model assessed as decrease in serum aspartate aminotransferase level at 50 mg/kg, ip administration and measured after 8 hrs relative to control; type: functional, organism-based
[44] = Clearance in male Wistar rat at 10 mg/kg, ip; type: ADME, organism-based; conditions: in vivo

SMILES: CCCCCn1c(-c2ccco2)nc2c(N(C)CCCO)nccc21
- IC50 [1]: 21.8 µM
- IC50 [2]: 3.48 µM
- IC50 [3]: 2910 nM
- IC50 [4]: 7.24 µM
- IC50 [5]: 9.92 µM
- Activity [6]: inactive
- IC50 [7]: 2.95 µM
- IC50 [8]: 2.3 µM
- IC50 [9]: 25.8 µM

SMILES: OCCCNc1ccnc2c1nc(-c1ccco1)n2C1CCCC1
- Activity [10]: Active
- Activity [11]: Active
- IC50 [1]: 40.7 µM
- half-life [12]: 19.5 min
- Activity [13]: Active
- concentration at 1 h [14]: ≥ 830 ng/mL
- Vd/F [15]: 3.92 L/kg
- Ratio IC50 [16]: > 10
- Activity [17]: Active
- IC50 [2]: 2.53 µM
- IC50 [3]: 2710 nM
- Tmax [18]: 15 min
- Activity [19]: Active
- IC50 [4]: 88 µM
- IC50 [5]: 47.3 µM
- Kp at […] [20]: 5.87
- Activity [21]: Active
- Activity [22]: Active
- Activity [23]: Active
- Activity [6]: Active
- Vz/F [24]: 1.85 L/kg
- IC50 [7]: 5.75 µM
- Activity [25]: 49%
- Activity [26]: Active
- Kp at 1 h [27]: 4.34
- AUC [28]: 1230 ng·h/mL
- IC50 [8]: 8.45 µM
- half-life [29]: 20.1 min
- Activity [30]: Active
- Activity [31]: Active
- IC50 [9]: 35.6 µM
- Tmax [32]: 0 h
- AUC [33]: 2530 ng·h/mL
- Activity [34]: Active
- Ratio IC50 [35]: > 10
- clearance [36]: 70 mL/min/kg
- half-life [37]: 30 min
- Kp at 5 min [38]: 2.96
- Activity [39]: 44%
- Cmax [40]: 1940 ng/mL
- Cmax [41]: 10600 ng/mL
- Activity [42]: 51%
- Activity [43]: Active
- CL/F [44]: 140 mL/min/kg

SMILES: CCOC(=O)C1=C[C@]2(CC)CCCN3CCc4c(n1c1ccccc41)[C@@H]32 [VINPOCETINE]
- IC50 [8]: 7.99 µM

SMILES: CCCCCn1c(-c2ccco2)nc2c(N)ccnc21
- IC50 [2]: 39.9 µM
- IC50 [4]: > 200 µM

SMILES: Nc1ccnc2c1nc(-c1ccccc1)n2CCCO
- IC50 [2]: 100 µM
- IC50 [4]: > 200 µM

SMILES: CCCCCn1c(-c2ccco2)nc2c(NCCOC)ccnc21
- IC50 [2]: 9.77 µM
- IC50 [4]: > 200 µM

SMILES: OCCCNc1nccc2c1nc(-c1ccco1)n2C1CCCC1
- IC50 [2]: 19 µM
- IC50 [4]: > 200 µM

SMILES: CCCCCn1c(-c2ccco2)nc2c(NCc3ccccc3)nccc21
- IC50 [2]: 8.34 µM
- IC50 [4]: > 200 µM
